Results from the NIST ThermoML archive (doi:10.1021/je8007759).

Test: xn = mol fraction of the nth substance listed

CC1CCC(=O)O1 (stereo not given) [γ-valerolactone] + O=C=O
Fluid (supercritical or subcritical phases), Pycnometric method
Conditions | mass density [kg/m3]
313.2 K, 10860 kPa, x1 = 0.1 | 942
313.2 K, 10880 kPa, x1 = 0.025 | 833
313.2 K, 11030 kPa, x1 = 0.01 | 778
313.2 K, 11160 kPa, x1 = 0.025 | 840
313.2 K, 11200 kPa, x1 = 0.05 | 872
313.2 K, 11230 kPa, x1 = 0.15 | 981
313.2 K, 11440 kPa, x1 = 0.01 | 789
313.2 K, 11450 kPa, x1 = 0.025 | 846
313.2 K, 11640 kPa, x1 = 0.1 | 949
313.2 K, 11660 kPa, x1 = 0.05 | 878
313.2 K, 11770 kPa, x1 = 0.025 | 852
313.2 K, 11850 kPa, x1 = 0.15 | 985
313.2 K, 11950 kPa, x1 = 0.01 | 802
313.2 K, 12460 kPa, x1 = 0.15 | 987
313.2 K, 12490 kPa, x1 = 0.1 | 956
313.2 K, 13220 kPa, x1 = 0.15 | 992
313.2 K, 13510 kPa, x1 = 0.1 | 964
313.2 K, 13960 kPa, x1 = 0.15 | 995
313.2 K, 14650 kPa, x1 = 0.15 | 999
313.2 K, 15420 kPa, x1 = 0.15 | 1002
313.2 K, 16160 kPa, x1 = 0.15 | 1006
313.2 K, 16920 kPa, x1 = 0.15 | 1009
316.2 K, 8740 kPa, x1 = 0.025 | 683
316.2 K, 8760 kPa, x1 = 0.025 | 687
316.2 K, 8790 kPa, x1 = 0.025 | 692
316.2 K, 8810 kPa, x1 = 0.025 | 696
316.2 K, 8830 kPa, x1 = 0.025 | 700
316.2 K, 8880 kPa, x1 = 0.025 | 704
316.2 K, 8910 kPa, x1 = 0.025 | 709
316.2 K, 8960 kPa, x1 = 0.025 | 713
316.2 K, 8990 kPa, x1 = 0.025 | 718
316.2 K, 9060 kPa, x1 = 0.025 | 723
316.2 K, 9110 kPa, x1 = 0.025 | 728
316.2 K, 9180 kPa, x1 = 0.025 | 732
316.2 K, 9250 kPa, x1 = 0.025 | 737
316.2 K, 9320 kPa, x1 = 0.025 | 742
316.2 K, 9410 kPa, x1 = 0.025 | 747
316.2 K, 9500 kPa, x1 = 0.025 | 752
316.2 K, 9590 kPa, x1 = 0.025 | 758
316.2 K, 9700 kPa, x1 = 0.025 | 762
316.2 K, 9800 kPa, x1 = 0.025 | 768
316.2 K, 9930 kPa, x1 = 0.025 | 772
316.2 K, 10060 kPa, x1 = 0.025 | 778
316.2 K, 10210 kPa, x1 = 0.025 | 783
316.2 K, 10360 kPa, x1 = 0.025 | 788
316.2 K, 10520 kPa, x1 = 0.025 | 794
316.2 K, 10720 kPa, x1 = 0.025 | 800
316.2 K, 10910 kPa, x1 = 0.025 | 806
316.2 K, 11110 kPa, x1 = 0.025 | 812
316.2 K, 11350 kPa, x1 = 0.025 | 818
316.2 K, 11610 kPa, x1 = 0.025 | 824
316.2 K, 11880 kPa, x1 = 0.025 | 830
316.2 K, 12200 kPa, x1 = 0.025 | 836
316.2 K, 12480 kPa, x1 = 0.025 | 842
318 K, 9060 kPa, x1 = 0.01 | 519
318 K, 9080 kPa, x1 = 0.01 | 522
318 K, 9090 kPa, x1 = 0.01 | 525
318 K, 9110 kPa, x1 = 0.01 | 529
318 K, 9120 kPa, x1 = 0.01 | 532
318 K, 9140 kPa, x1 = 0.01 | 535
318 K, 9180 kPa, x1 = 0.01 | 542
318 K, 9180 kPa, x1 = 0.15 | 949
318 K, 9190 kPa, x1 = 0.025 | 680
318 K, 9220 kPa, x1 = 0.01 | 549
318 K, 9230 kPa, x1 = 0.025 | 683
318 K, 9250 kPa, x1 = 0.01 | 556
318 K, 9260 kPa, x1 = 0.025 | 688
318 K, 9270 kPa, x1 = 0.05 | 776
318 K, 9290 kPa, x1 = 0.01 | 563
318 K, 9290 kPa, x1 = 0.025 | 692
318 K, 9330 kPa, x1 = 0.01 | 570
318 K, 9330 kPa, x1 = 0.05 | 782
318 K, 9340 kPa, x1 = 0.025 | 696
318 K, 9380 kPa, x1 = 0.01 | 578
318 K, 9380 kPa, x1 = 0.025 | 700
318 K, 9410 kPa, x1 = 0.05 | 787
318 K, 9410 kPa, x1 = 0.1 | 894
318 K, 9430 kPa, x1 = 0.01 | 586
318 K, 9430 kPa, x1 = 0.025 | 705
318 K, 9480 kPa, x1 = 0.01 | 593
318 K, 9480 kPa, x1 = 0.025 | 709
318 K, 9480 kPa, x1 = 0.05 | 792
318 K, 9490 kPa, x1 = 0.15 | 952
318 K, 9530 kPa, x1 = 0.025 | 714
318 K, 9540 kPa, x1 = 0.01 | 602
318 K, 9540 kPa, x1 = 0.1 | 896
318 K, 9590 kPa, x1 = 0.025 | 718
318 K, 9600 kPa, x1 = 0.05 | 797
318 K, 9610 kPa, x1 = 0.01 | 611
318 K, 9660 kPa, x1 = 0.025 | 723
318 K, 9690 kPa, x1 = 0.01 | 619
318 K, 9730 kPa, x1 = 0.025 | 728
318 K, 9730 kPa, x1 = 0.1 | 900
318 K, 9760 kPa, x1 = 0.05 | 803
318 K, 9800 kPa, x1 = 0.01 | 631
318 K, 9800 kPa, x1 = 0.025 | 732
318 K, 9860 kPa, x1 = 0.025 | 737
318 K, 9880 kPa, x1 = 0.1 | 903
318 K, 9930 kPa, x1 = 0.01 | 642
318 K, 9940 kPa, x1 = 0.05 | 809
318 K, 9940 kPa, x1 = 0.15 | 956
318 K, 9950 kPa, x1 = 0.025 | 742
318 K, 10020 kPa, x1 = 0.01 | 652
318 K, 10050 kPa, x1 = 0.025 | 747
318 K, 10080 kPa, x1 = 0.01 | 657
318 K, 10130 kPa, x1 = 0.05 | 814
318 K, 10140 kPa, x1 = 0.1 | 906
318 K, 10150 kPa, x1 = 0.025 | 752
318 K, 10260 kPa, x1 = 0.025 | 757
318 K, 10320 kPa, x1 = 0.15 | 959
318 K, 10340 kPa, x1 = 0.05 | 820
318 K, 10340 kPa, x1 = 0.1 | 909
318 K, 10380 kPa, x1 = 0.025 | 762
318 K, 10500 kPa, x1 = 0.025 | 768
318 K, 10600 kPa, x1 = 0.05 | 825
318 K, 10610 kPa, x1 = 0.1 | 912
318 K, 10640 kPa, x1 = 0.025 | 773
318 K, 10750 kPa, x1 = 0.01 | 695
318 K, 10800 kPa, x1 = 0.025 | 779
318 K, 10850 kPa, x1 = 0.1 | 916
318 K, 10870 kPa, x1 = 0.05 | 832
318 K, 10920 kPa, x1 = 0.15 | 962
318 K, 10960 kPa, x1 = 0.025 | 784
318 K, 11040 kPa, x1 = 0.01 | 711
318 K, 11120 kPa, x1 = 0.025 | 789
318 K, 11140 kPa, x1 = 0.1 | 919
318 K, 11160 kPa, x1 = 0.05 | 838
318 K, 11320 kPa, x1 = 0.025 | 795
318 K, 11440 kPa, x1 = 0.1 | 922
318 K, 11470 kPa, x1 = 0.05 | 843
318 K, 11480 kPa, x1 = 0.15 | 966
318 K, 11520 kPa, x1 = 0.025 | 801
318 K, 11740 kPa, x1 = 0.025 | 806
318 K, 11750 kPa, x1 = 0.1 | 925
318 K, 11860 kPa, x1 = 0.05 | 850
318 K, 11950 kPa, x1 = 0.025 | 813
318 K, 11960 kPa, x1 = 0.15 | 969
318 K, 12090 kPa, x1 = 0.1 | 928
318 K, 12210 kPa, x1 = 0.025 | 818
318 K, 12240 kPa, x1 = 0.05 | 857
318 K, 12490 kPa, x1 = 0.025 | 824
318 K, 12600 kPa, x1 = 0.15 | 972
318 K, 12670 kPa, x1 = 0.05 | 862
318 K, 12770 kPa, x1 = 0.025 | 830
318 K, 12780 kPa, x1 = 0.1 | 935
318 K, 13080 kPa, x1 = 0.025 | 836
318 K, 13090 kPa, x1 = 0.15 | 975
318 K, 13150 kPa, x1 = 0.05 | 869
318 K, 13490 kPa, x1 = 0.025 | 843
318 K, 13580 kPa, x1 = 0.1 | 943
318 K, 13710 kPa, x1 = 0.15 | 978
318 K, 13740 kPa, x1 = 0.025 | 849
318 K, 13850 kPa, x1 = 0.05 | 878
318 K, 13990 kPa, x1 = 0.1 | 945
318 K, 14310 kPa, x1 = 0.15 | 982
318 K, 14380 kPa, x1 = 0.1 | 949
318 K, 15060 kPa, x1 = 0.15 | 986
318 K, 15680 kPa, x1 = 0.15 | 989
318 K, 16350 kPa, x1 = 0.15 | 992
318 K, 16950 kPa, x1 = 0.15 | 995
322.9 K, 9850 kPa, x1 = 0.01 | 518

mass density [kg/m3], high pressure variable cell
Conditions | x1 = 0.01 | x1 = 0.025 | x1 = 0.05 | x1 = 0.1 | x1 = 0.15
313.2 K, Liquid | 539 | 723 | 803 | 910 | 961
318 K, Gas | 516 | 677 | – | – | –
318 K, Liquid | – | – | – | 891 | 948
